This is an account of results in ChEMBL document CHEMBL3244190, “2,3-Dihydroxy-9-amino-9,10-dihydrophenanthrene, a rigid congener of dopamine and isoapomorphine” (J Med Chem, 1978).

The target in experiment [1] is T1, Adenylate cyclase (Rattus norvegicus) (UniProt D4A3N4+P26770+Q04400+P26769+Q03343+P40146+Q8CFM9+P21932). Briefly: Inhibition of dopamine-induced adenylate cyclase activation in rat striatal homogenate assessed as enzyme activity at 100 uM after 2.5 mins relative to control. Further details: scale not given: the % may be the effect or the level left.
Another experiment deals with Canis familiaris. Briefly: Induction of vasodilation in intraarterially dosed anesthetized Mongrel dog at 3 umol. It is filed as functional, organism-based. Particulars: Canis lupus familiaris.
The target in experiment [2] is T1, Adenylate cyclase (Rattus norvegicus). The experiment can be described thus: Activation of rat striatal homogenate adenylate cyclase assessed as cAMP level at 10 uM after 2.5 mins relative to control. A general note: Cyclic AMP is a second messenger, typically raised through Gs and lowered through Gi signalling.
For experiment [3] the target is unchanged. Briefly: Activation of rat striatal homogenate adenylate cyclase assessed as cAMP level at 100 uM after 2.5 mins relative to control.

The structures appear in SMILES notation. Calls of active or inactive are those of the source. No cut-off for these calls is given here.

In the case of `NC1Cc2cc(O)c(O)cc2-c2ccccc21` (stereo not given), the values for the Activity in experiment [1], in experiment [2] and in experiment [3] were 149%, 100% and 92%, respectively. The outcome in the experiment on Canis familiaris was inactive.
In the case of `NCCc1ccc(O)c(O)c1`, the Activity in experiment [3] is 150%.
